# According to US9624214B2, “Amino-substituted imidazo[1,2-a]pyridinecarboxamides and their use” (BAYER PHARMA AKTIENGESELLSCHAFT, priority 2012, dated 2017):
# Structures can show the parent of a compound that is named as a salt.
# Target: T1, recombinant guanylate cyclase reporter cell line (Rattus norvegicus, UniProt P19686+P20595)
# T1 construct: expressed in transfected cells
# T1 sequence (P20595 1-619): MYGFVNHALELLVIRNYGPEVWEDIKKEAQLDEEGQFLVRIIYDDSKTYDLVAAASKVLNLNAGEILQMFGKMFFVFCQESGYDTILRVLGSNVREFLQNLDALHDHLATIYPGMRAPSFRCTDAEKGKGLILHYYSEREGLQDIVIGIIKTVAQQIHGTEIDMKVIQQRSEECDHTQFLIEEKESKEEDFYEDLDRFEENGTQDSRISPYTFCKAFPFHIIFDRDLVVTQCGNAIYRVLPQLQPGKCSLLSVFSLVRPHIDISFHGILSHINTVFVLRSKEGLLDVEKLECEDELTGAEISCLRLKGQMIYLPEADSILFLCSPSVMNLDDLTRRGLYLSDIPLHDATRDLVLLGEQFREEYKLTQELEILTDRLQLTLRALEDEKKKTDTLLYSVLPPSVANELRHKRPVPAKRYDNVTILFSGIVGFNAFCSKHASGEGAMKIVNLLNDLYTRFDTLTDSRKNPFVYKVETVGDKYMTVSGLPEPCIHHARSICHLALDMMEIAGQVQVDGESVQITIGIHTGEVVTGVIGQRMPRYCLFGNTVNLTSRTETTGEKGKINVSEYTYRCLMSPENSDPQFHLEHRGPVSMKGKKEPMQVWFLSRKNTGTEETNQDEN
# T1 sequence (P19686 1-690): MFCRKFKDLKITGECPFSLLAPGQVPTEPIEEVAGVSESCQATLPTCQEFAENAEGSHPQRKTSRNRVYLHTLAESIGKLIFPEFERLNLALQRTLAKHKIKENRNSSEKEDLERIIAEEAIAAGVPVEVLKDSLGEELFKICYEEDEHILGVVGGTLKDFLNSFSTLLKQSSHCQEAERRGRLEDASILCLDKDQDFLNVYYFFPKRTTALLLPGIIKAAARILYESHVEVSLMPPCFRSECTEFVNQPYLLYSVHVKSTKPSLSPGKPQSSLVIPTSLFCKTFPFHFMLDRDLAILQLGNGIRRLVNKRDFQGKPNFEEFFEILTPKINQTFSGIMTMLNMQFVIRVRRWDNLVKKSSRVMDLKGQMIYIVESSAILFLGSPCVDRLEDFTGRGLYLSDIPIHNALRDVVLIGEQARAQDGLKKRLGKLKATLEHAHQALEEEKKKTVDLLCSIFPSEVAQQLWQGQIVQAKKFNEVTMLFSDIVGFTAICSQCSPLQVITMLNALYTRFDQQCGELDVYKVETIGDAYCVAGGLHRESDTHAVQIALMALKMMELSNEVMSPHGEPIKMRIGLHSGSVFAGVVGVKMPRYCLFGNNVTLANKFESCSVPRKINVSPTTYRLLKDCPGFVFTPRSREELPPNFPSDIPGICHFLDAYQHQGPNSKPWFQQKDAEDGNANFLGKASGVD
# Assay: B-2. Action on recombinant guanylate cyclase reporter cell line
# Format: cell-based
# Details: MEC = minimal effective concentration; in some cases mean values from individual determinations
# Summary of the method: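 Reported value is the minimal effective concentration (MEC), in some cases a mean of single runs, taken from a recombinant rat guanylate cyclase reporter cell line.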
row,Structure (SMILES),MEC
1,"CCCC(C)(N)CNC(=O)c1c(C)nc2c(OCc3c(F)cccc3F)cc(CC)cn12 (stereo not drawn) [Example 323, ent-N-(2-amino-2-methylpentyl)-8-[(2,6-difluorobenzyl)oxy]-6-ethyl-2-methylimidazo[1,2-a]pyridine-3-carboxamide]",0.30 µM
2,"Cc1cc(OCc2c(F)cccc2F)c2nc(C)c(C(=O)N[C@@H]3CC[C@](C)(N)C3(C)C)n2c1 [Example 324, N-[(1R,3S)-3-amino-2,2,3-trimethylcyclopentyl]-8-[(2,6-difluorobenzyl)oxy]-2,6-dimethylimidazo[1,2-a]pyridine-3-carboxamide]",1.00 µM
3,"CCCc1nc2c(OCc3c(F)cccc3F)cc(C)cn2c1C(=O)NCC(C)(N)CC (stereo not drawn) [Example 327, ent-N-(2-amino-2-methylbutyl)-8-[(2,6-difluorobenzyl)oxy]-6-methyl-2-propylimidazo[1,2-a]pyridine-3-carboxamide]",1.00 µM
4,"CCCC(C)(N)CNC(=O)c1c(CC)nc2c(OCc3c(F)cccc3F)cc(C)cn12 (stereo not drawn) [Example 338, ent-N-(2-amino-2-methylpentyl)-8-[(2,6-difluorobenzyl)oxy]-2-ethyl-6-methylimidazo[1,2-a]pyridine-3-carboxamide]",0.10 µM
5,"Cc1cc(OCc2c(F)cccc2F)c2nc(C)c(C(=O)NCC(C)(C)NCCO)n2c1 [Example 349, 8-[(2,6-Difluorobenzyl)oxy]-N-{2-[(2-hydroxyethyl)amino]-2-methylpropyl}-2,6-dimethylimidazo[1,2-a]pyridine-3-carboxamide]",1.00 µM
6,"COc1cccc(F)c1COc1cc(C)cn2c(C(=O)NCC(C)(C)N)c(C)nc12 [Example 352, N-(2-amino-2-methylpropyl)-8-[(2-fluoro-6-methoxybenzyl)oxy]-2,6-dimethylimidazo[1,2-a]pyridine-3-carboxamide]",3.00 µM
7,"CCCC(C)(N)CNC(=O)c1c(C)nc2c(OCc3ccccc3Br)cc(C)cn12 (centres unmarked) [Example 353, N-(2-amino-2-methylpentyl)-8-[(2-bromobenzyl)oxy]-2,6-dimethylimidazo[1,2-a]pyridine-3-carboxamide]",3.00 µM
8,"CCCC(C)(N)CNC(=O)c1cnc2c(OCc3c(F)cccc3F)cccn12 (stereo not drawn) [Example 354, ent-N-(2-amino-2-methylpentyl)-8-[(2,6-difluorobenzyl)oxy]imidazo[1,2-a]pyridine-3-carboxamide]",3.00 µM
9,"C#Cc1cc(OCc2c(F)cccc2F)c2nc(C)c(C(=O)NCC(C)(N)CCC)n2c1 (stereo not drawn) [Example 355, ent-N-(2-amino-2-methylpentyl)-8-[(2,6-difluorobenzyl)oxy]-6-ethynyl-2-methylimidazo[1,2-a]pyridine-3-carboxamide Formate]",0.30 µM
10,"C#Cc1cc(OCc2c(F)cccc2F)c2nc(C)c(C(=O)NCC(C)(N)CCC)n2c1 (stereo not drawn) [Example 356, ent-N-(2-amino-2-methylpentyl)-8-[(2,6-difluorobenzyl)oxy]-6-ethynyl-2-methylimidazo[1,2-a]pyridine-3-carboxamide]",0.10 µM
11,"CCCC(C)(N)CNC(=O)c1c(C)nc2c(OCc3c(F)ccc(C4CC4)c3F)cc(C)cn12 (stereo not drawn) [Example 359, ent-N-(2-amino-2-methylpentyl)-8-[(3-cyclopropyl-2,6-difluorobenzyl)oxy]-2,6-dimethylimidazo[1,2-a]pyridine-3-carboxamide]",3.00 µM
12,"CCC(C)(N)CNC(=O)c1c(C)nc2c(OCc3c(F)ccc(OC)c3F)cc(C)cn12 (stereo not drawn) [Example 360, ent-N-(2-amino-2-methylbutyl)-8-[(2,6-difluoro-3-methoxybenzyl)oxy]-2,6-dimethylimidazo[1,2-a]pyridine-3-carboxamide]",1.00 µM
13,"COc1ccc(F)c(COc2cc(C)cn3c(C(=O)NCC(C)(N)CF)c(C)nc23)c1F (stereo not drawn) [Example 361, ent-N-(2-amino-3-fluoro-2-methylpropyl)-8-[(2,6-difluoro-3-methoxybenzyl)oxy]-2,6-dimethylimidazo[1,2-a]pyridine-3-carboxamide]",1.00 µM
14,"Cc1cc(OCc2c(F)ccc(C3CC3)c2F)c2nc(C)c(C(=O)NCC(C)(N)CF)n2c1 (centres unmarked) [Example 362, N-(2-amino-3-fluoro-2-methylpropyl)-8-[(3-cyclopropyl-2,6-difluorobenzyl)oxy]-2,6-dimethylimidazo[1,2-a]pyridine-3-carboxamide]",1.00 µM
15,"CCC(C)(N)CNC(=O)c1c(C)nc2c(OCc3c(F)ccc(C4CC4)c3F)cc(C)cn12 (stereo not drawn) [Example 363, ent-N-(2-amino-2-methylbutyl)-8-[(3-cyclopropyl-2,6-difluorobenzyl)oxy]-2,6 dimethylimidazo[1,2-a]pyridine-3-carboxamide]",3.00 µM
16,"CCCC(C)(N)CNC(=O)c1c(C)nc2c(OCc3c(F)ccc(OC)c3F)cc(C)cn12 (stereo not drawn) [Example 364, ent-N-(2-amino-2-methylpentyl)-8-[(2,6-difluoro-3-methoxybenzyl)oxy]-2,6-dimethylimidao[1,2-a]pyridine-3-carboxamide]",0.30 µM
17,"Cc1cc(OCc2c(F)cccc2F)c2nc(C)c(C(=O)NC34CC5CC(CC(N)(C5)C3)C4)n2c1 [Example 365, N-(3-aminoadamantan-1-yl)-8-[(2,6-difluorobenzyl)oxy]-2,6-dimethylimidazo[1,2-a]pyridine-3-carboxamide Formate]",1.00 µM
18,"CCCC(C)(N)CNC(=O)c1c(C)nc2c(OCc3c(F)cccc3F)cc(CF)cn12 (stereo not drawn) [Example 403, ent-N-(2-amino-2-methylpentyl)-8-[(2,6-difluorobenzyl)oxy]-6-(fluoromethyl)-2-methylimidazo[1,2-a]pyridine-3-carboxamide]",0.10 µM
19,"CCC(C)(N)CNC(=O)c1c(C)nc2c(OCc3c(F)cccc3F)cc(CF)cn12 (stereo not drawn) [Example 404, ent-N-(2-amino-2-methylbutyl)-8-[(2,6-difluorobenzyl)oxy]-6-(fluoromethyl)-2-methylimidazo[1,2-a]pyridine-3-carboxamide]",0.30 µM
20,"Cc1nc2c(OCc3c(F)cccc3F)cc(CF)cn2c1C(=O)NCC(C)(N)CF (stereo not drawn) [Example 405, ent-N-(2-amino-3-fluoro-2-methylpropyl)-8-[(2,6-difluorobenzyl)oxy]-6-(fluoromethyl)-2-methylimidazo[1,2-a]pyridine-3-carboxamide]",0.30 µM
